Test results: ChEMBL document CHEMBL1132810, “Inhibition of vertebrate squalene epoxidase by isoprenyl gallates and phenylalkyl gallates” (Bioorg Med Chem Lett, 2000)
pIC50: −log10 of the molar value.

biological target: Squalene monooxygenase (Rattus norvegicus, UniProt P52020); test: Compound was evaluated for its inhibitory activity against recombinant rat SE(squalene epoxidase)
Sequence (P52020 whole entry): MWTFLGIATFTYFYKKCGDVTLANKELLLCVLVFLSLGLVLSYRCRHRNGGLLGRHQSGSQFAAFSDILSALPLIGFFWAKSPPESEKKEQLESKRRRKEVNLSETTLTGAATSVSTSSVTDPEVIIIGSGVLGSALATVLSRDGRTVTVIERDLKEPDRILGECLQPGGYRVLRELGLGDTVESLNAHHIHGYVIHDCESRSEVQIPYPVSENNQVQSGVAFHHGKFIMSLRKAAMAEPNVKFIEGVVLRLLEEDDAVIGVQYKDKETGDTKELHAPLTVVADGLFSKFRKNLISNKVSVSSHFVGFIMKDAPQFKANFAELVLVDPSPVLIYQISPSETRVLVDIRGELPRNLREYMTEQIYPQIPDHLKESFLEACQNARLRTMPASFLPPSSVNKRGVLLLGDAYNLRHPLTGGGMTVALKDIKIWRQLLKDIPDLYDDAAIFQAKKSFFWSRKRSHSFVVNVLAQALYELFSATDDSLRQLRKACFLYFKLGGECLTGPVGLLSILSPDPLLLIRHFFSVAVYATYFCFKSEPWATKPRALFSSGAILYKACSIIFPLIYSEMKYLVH

Question: How did the pIC50 turn out when `CC(C)=CCC/C(C)=C/CC/C(C)=C/CC/C=C(\C)CC/C=C(\C)CCCOC(=O)c1cc(O)c(O)c(O)c1` was run?
Answer: 5.29

Question: How did the pIC50 turn out when `O=C(OCCCCCCCCc1ccccc1)c1cc(O)c(O)c(O)c1` was run?
Answer: 4.90

Question: How did the pIC50 turn out when `CC(C)=CCC/C(C)=C/CC/C(C)=C/CC/C(C)=C/COC(=O)c1cc(O)c(O)c(O)c1` was run?
Answer: 5.35

Question: With `O=C(OCCCCCCc1ccccc1)c1cc(O)c(O)c(O)c1` as the molecule, how does the pIC50 read?
Answer: 4.92

Question: With `O=C(OCCCCCCCCCCc1ccccc1)c1cc(O)c(O)c(O)c1` as the molecule, how does the pIC50 read?
Answer: 4.82

Question: With `O=C(OCCCCc1ccccc1)c1cc(O)c(O)c(O)c1` as the molecule, how does the pIC50 read?
Answer: 4.21

Question: How did the pIC50 turn out when `CC(C)=CCC/C(C)=C/CC/C(C)=C/COC(=O)c1cc(O)c(O)c(O)c1` was run?
Answer: 5.82

Question: With `CCCCCCCCCCCCOC(=O)c1cc(O)c(O)c(O)c1` [DODECYL GALLATE] as the molecule, how does the pIC50 read?
Answer: 7.21

Question: How did the pIC50 turn out when `O=C(O[C@@H]1Cc2c(O)cc(O)cc2O[C@@H]1c1cc(O)c(O)c(O)c1)c1cc(O)c(O)c(O)c1` [EPIGALOCATECHIN GALLATE] was run?
Answer: 6.16

Question: With `CC(C)=CCC/C(C)=C/COC(=O)c1cc(O)c(O)c(O)c1` [Geranyl gallate] as the molecule, how does the pIC50 read?
Answer: 4.90
